Source: ChEMBL document CHEMBL3272086, “Antimalarials. 9. Methylthio- and methylsulfonyl-substituted 9-phenanthrenemethanols” (1976)
Calls of active or inactive are those of the source. The calls are words filed in the database; no cut-off is given here.

What was measured:
Plasmodium berghei [1] = assay: Antimalarial activity against Plasmodium berghei infected in mouse assessed as change in mean survival time at 20 mg/kg, sc administered 72 hrs post infection as single dose (reference value: 6.2 days); format: functional; details: route subcutaneous
Plasmodium berghei [2] = assay: Antimalarial activity against Plasmodium berghei infected in mouse assessed as change in mean survival time at 40 mg/kg, sc administered 72 hrs post infection as single dose (reference value: 6.2 days); format: functional; details: route subcutaneous
Plasmodium berghei [3] = assay: Antimalarial activity against Plasmodium berghei infected in mouse assessed as change in mean survival time at 80 mg/kg, sc administered 72 hrs post infection as single dose (reference value: 6.2 days); format: functional; details: route subcutaneous
Plasmodium berghei [4] = assay: Antimalarial activity against Plasmodium berghei infected in mouse assessed as change in mean survival time at 160 mg/kg, sc administered 72 hrs post infection as single dose (reference value: 6.2 days); format: functional; details: route subcutaneous
Plasmodium berghei [5] = assay: Antimalarial activity against Plasmodium berghei infected in mouse assessed as cure from disease at 320 mg/kg, sc administered 72 hrs post infection as single dose measured post 60 days; format: functional, organism-based; set-up: dose 320 mg/kg
Plasmodium berghei [6] = assay: Antimalarial activity against Plasmodium berghei infected in mouse assessed as cure from disease at 160 mg/kg, sc administered 72 hrs post infection as single dose measured post 60 days; format: functional, organism-based; set-up: dose 160 mg/kg
Plasmodium berghei [7] = assay: Antimalarial activity against Plasmodium berghei infected in mouse assessed as change in mean survival time at 320 mg/kg, sc administered 72 hrs post infection as single dose (reference value: 6.2 days); format: functional; details: route subcutaneous

CCCCN(CCCC)CC(O)c1cc2cc(Br)ccc2c2cc(S(C)(=O)=O)ccc12.Cl (stereo not given)
MST (Plasmodium berghei [1]): 0.6 days
MST (Plasmodium berghei [2]): 1.2 days
MST (Plasmodium berghei [3]): 10.8 days

CCCCN(CCCC)CC(O)c1cc2cc(SC)ccc2c2cc(SC)ccc12.Cl (stereo not given)
MST (Plasmodium berghei [4]): 16.1 days
MST (Plasmodium berghei [1]): 0.7 days
MST (Plasmodium berghei [2]): 5.9 days
MST (Plasmodium berghei [3]): 11.5 days
Activity (Plasmodium berghei [5]): Active

CCCCN(CCCC)CC(O)c1cc2cc(Cl)cc(Cl)c2c2cc(SC)ccc12.Cl (stereo not given)
MST (Plasmodium berghei [1]): 10.5 days
Activity (Plasmodium berghei [6]): Active
Activity (Plasmodium berghei [5]): Active

CCCCN(CCCC)CC(O)c1cc2cc(SC)ccc2c2c(Cl)c(Cl)ccc12.Cl (stereo not given)
MST (Plasmodium berghei [1]): 9.3 days
MST (Plasmodium berghei [2]): 10.7 days

CCCCN(CCCC)CC(O)c1cc2cc(SC)ccc2c2cc(Cl)c(Cl)cc12.Cl (stereo not given)
MST (Plasmodium berghei [1]): 9.1 days
Activity (Plasmodium berghei [6]): Active
MST (Plasmodium berghei [2]): 10.3 days

CCCCN(CCCC)CC(O)c1cc2cc(S(C)(=O)=O)ccc2c2cc(Cl)c(Cl)cc12.Cl (stereo not given)
MST (Plasmodium berghei [1]): 4.9 days
MST (Plasmodium berghei [2]): 8.5 days
Activity (Plasmodium berghei [5]): Active

CCCCN(CCCC)CC(O)c1cc2cc(S(C)(=O)=O)ccc2c2cc(S(C)(=O)=O)ccc12.Cl (stereo not given)
MST (Plasmodium berghei [4]): 0.3 days
MST (Plasmodium berghei [7]): 0.3 days
MST (Plasmodium berghei [2]): 0.1 days
MST (Plasmodium berghei [3]): 0.3 days

CCCCN(CCCC)CC(O)c1cc2cc(S(C)(=O)=O)ccc2c2c(Cl)c(Cl)ccc12.Cl (stereo not given)
MST (Plasmodium berghei [1]): 4.7 days
MST (Plasmodium berghei [2]): 7.7 days
MST (Plasmodium berghei [3]): 14.9 days
Activity (Plasmodium berghei [5]): Active

CCCCN(CCCC)CC(O)c1cc2cc(Br)ccc2c2cc(SC)ccc12.Cl (stereo not given)
MST (Plasmodium berghei [1]): 2.8 days
MST (Plasmodium berghei [2]): 8.6 days
MST (Plasmodium berghei [3]): 9.5 days
